Measured values reported in patent publication US12484574B2, “Agent for promoting undifferentiation and cryoprotective agent using aprotic zwitterion” (JAPAN SCIENCE AND TECHNOLOGY AGENCY, priority 2019, dated 2025).
Marks after values point to notes of the source that are not given here.

Tests used:
[1] = Glass transition temperature and heat quantity by differential scanning calorimetry (DSC); assay type: physicochemical; conditions: 10 wt % in purified water, cooling −1° C./min, heating 5° C./min
Description: The glass transition temperature and the heat quantity were determined by differential scanning calorimetry (DSC). The measurement was performed with a cooling rate set to −1° C./min an d a heating rate set to 5° C./min.

human fibroblasts = test: Influence on cell cycle (Click-iT Plus EdU cell proliferation assay); assay type: cell-based; conditions: 2% addition; compared with no addition; FIG. 11
Description: The cells used were human fibroblasts.
The test groups were 1% addition groups and 2% addition groups of DMSO and HLS (OE2imC3C) vs. a control.
Cell cycle analysis was conducted using Click-iT® Plus EdU cell proliferation assay (Thermo Fisher Scientific Inc.) containing 5-ethynyl-2′-deoxyuridine (EdU) according to the manufacturer's protocol. The cells were incubated in 10 μM EdU for 1 hour, treated with trypsin, then fixed in 4% PFA, and labeled with Alexa Fluor 647 picolyl azide. The cells were stained with 4′,6-diamidino-2-phenylindole (DAPI) and analyzed with BD FACSAria™ III (BD Biosciences).

Wild-type zebrafish AB* = test: Influence on development of zebrafish; assay type: in vivo; conditions: for Survival rate: fertilized eggs cultured 1.5 to 24 hours
Description: All experiments were conducted based on a protocol approved by the animal experiment committee of Kanazawa University. Wild-type zebrafish AB* was raised at 28.5° C. with 14-hour light/10-hour dark cycles in a circulating water system. The medium used was E3 medium (5 mM NaCl, 0.17 mM KCl, 0.33 mM CaCl2, 0.33 mM MgSO4). The medium was supplemented with 1%, 2%, 5% or 10% DMSO or HLS (OE2imC3C). For each test group, eggs were fertilized and then cultured for 1.5 to 24 hours. The embryos thus cultured were washed with E3 medium twice and treated with 1-phenyl-2-thiourea (FUJIFILM Wako Pure Chemical Corp.) in order to prevent pigmentation. The embryos were stained with 0.6 mg/mL o-dianisidine (Tokyo Chemical Industry Co., Ltd.) for 15 minutes and fixed in 4% paraformaldehyde (FUJIFILM Wako Pure Chemical Corp.). The embryos were washed with phosphate-buffered saline containing 0.1% Tween (Sigma-Aldrich Co. LLC) twice. The survival rate was similar between DMSO and HLS (OE2imC3C) up to the 2% addition groups, whereas the survival rate differed largely therebetween in the 5% addition groups.

Human renal cell = test: Cell freezing experiment 4 (slow freezing), viable cell count as ratio to OE2imC3C; assay type: cell-based; conditions: −80° C., −1° C./min
Description: (§1) As for the cryopreservation solution, the aprotic zwitterion of each example was dissolved by the addition of purified water to prepare test solutions containing 5% by weight and 10% by weight of the aprotic zwitterion.
(§2) The cells to be frozen were centrifugally recovered by trypsin treatment and diluted with Dulbecco's modified Eagle medium (DMEM), and each cell concentration was measured. The types and cell concentrations of the cells are as follows. • Mouse skin fibroblasts 5.0×10^5 cells/100 μl • Human renal fat cells 5.0×10^5 cells/100 μl
(§3) Subsequently, the cells of each type were dispensed at 1 ml/tube to 1.5 ml tubes, centrifuged, suspended in 100 μl each of the cryopreservation solutions described above, and frozen at a cooling temperature of −80° C. at a cooling rate of −1° C./min using a cell freezing container Mr. Frosty®.
(§4) 1 ml of a medium was added to the cryopreservation vial for thawing, and a supernatant was removed by centrifugation. Subsequently, the cells obtained by centrifugation were resuspended in a medium, followed by the measurement of a viable cell count. The results are indicated by a ratio to the viable cell count of OE2imC3C.

Mouse skin fibroblast = test: as above; assay type: cell-based; conditions: −80° C., −1° C./min
Description: as §1, §2, §3, §4

Row | Compound | Heat quantity [1] [J/g] | Tg [1] [°C] | other results
1 | C=CCn1cc[n+](CCCC(=O)[O-])c1 [AimC3C] | -188.37 | −85 | –
2 | C=CCn1cc[n+](CCCS(=O)(=O)[O-])c1 [AimC3S] | -213.16 | −85.76 | –
3 | C=CCn1cc[n+](CCCCS(=O)(=O)[O-])c1 [AimC4S] | -210.34 | −86.07 | –
4 | C[S+](C)[O-] [DMSO, dimethyl sulfoxide] | – | – | influence on cell cycle (G0/G1 phase, S phase) (human fibroblasts): prolonged the G0/G1 phase and drastically shortened the S phase; development of surviving fertilized eggs (abnormality) (Wild-type zebrafish AB*; 5 % v/v in E3 medium): did not normally develop; Survival rate (Wild-type zebrafish AB*; Concentration 1 % (v/v for DMSO, w/v for HLS) in E3 medium): 27/27; Survival rate (Wild-type zebrafish AB*; Concentration 2 % (v/v for DMSO, w/v for HLS) in E3 medium): 27/27; Survival rate (Wild-type zebrafish AB*; Concentration 5 % (v/v for DMSO, w/v for HLS) in E3 medium): 4/27*; Survival rate (Wild-type zebrafish AB*; Concentration 10 % (v/v for DMSO, w/v for HLS) in E3 medium): 0/27
5 | Cn1cc[n+](CCCC(=O)[O-])c1 [Example C1imC3C] | -199.61 | −95.22 | –
6 | Cn1cc[n+](CCCS(=O)(=O)[O-])c1 [Example C1imC3S] | -173.36 | −88.88 | –
7 | C[n+]1ccn(CCCCCC(=O)[O-])c1 [Example C1imC5C] | -169.61 | −84.51 | viable cell count, ratio to the viable cell count of OE2imC3C (Human renal cell; 5 wt % in purified water): 1.94; viable cell count, ratio to the viable cell count of OE2imC3C (Human renal cell; 10 wt % in purified water): 0.72; viable cell count, ratio to the viable cell count of OE2imC3C (Mouse skin fibroblast; 5 wt % in purified water): 0.82; viable cell count, ratio to the viable cell count of OE2imC3C (Mouse skin fibroblast; 10 wt % in purified water): 1.09
8 | CCCCn1cc[n+](CCCC(=O)[O-])c1 [Example C4imC3C] | -198.66 | −75.3 | –
9 | CCCCn1cc[n+](CCCCCC(=O)[O-])c1 [Example C4imC5C] | -183.73 | −74.59 | –
10 | CCCCCCCCn1cc[n+](CCCC(=O)[O-])c1 [Example C8imC3C] | -187.42 | −84.05 | –
11 | CCCCCCCC[n+]1ccn(CCCS(=O)(=O)[O-])c1 [Example C8imC3S] | – | – | viable cell count, ratio to the viable cell count of OE2imC3C (Human renal cell; 5 wt % in purified water): 0.00; viable cell count, ratio to the viable cell count of OE2imC3C (Human renal cell; 10 wt % in purified water): 0.33; viable cell count, ratio to the viable cell count of OE2imC3C (Mouse skin fibroblast; 5 wt % in purified water): 0.00; viable cell count, ratio to the viable cell count of OE2imC3C (Mouse skin fibroblast; 10 wt % in purified water): 0.04
12 | CCCCCCCCCCCCCC[N+](C)(C)CCCC(=O)[O-] [N1,1,14C3C] | -182.67 | −74.96 | viable cell count, ratio to the viable cell count of OE2imC3C (Human renal cell; 5 wt % in purified water): 0.59; viable cell count, ratio to the viable cell count of OE2imC3C (Human renal cell; 10 wt % in purified water): 0.56; viable cell count, ratio to the viable cell count of OE2imC3C (Mouse skin fibroblast; 5 wt % in purified water): 0.58; viable cell count, ratio to the viable cell count of OE2imC3C (Mouse skin fibroblast; 10 wt % in purified water): 0.77
13 | COCCn1cc[n+](CCCC(=O)[O-])c1 [OE1imC3C] | -188.49 | −86.07 | –

Further lines, with some results ahead:

Row | Heat quantity [1] [J/g] | Tg [1] [°C] | Compound | other results
14 | -190.84 | −85.48 | COCCOCCn1cc[n+](CCCS(=O)(=O)[O-])c1 [OE2imC3S] | –
15 | -190.82 | −83.34 | COCCOCCn1cc[n+](CCCCCC(=O)[O-])c1 [OE2imC5C] | –
16 | -182.59 | −90.35 | O=C([O-])CCC[n+]1ccccc1 [PyC3C] | –
17 | -188.06 | −91.85 | C[N+]1(CCCC(=O)[O-])CCCC1 [PyrrC3C] | –
18 | -182.17 | −85.74 | C=Cn1cc[n+](CCCC(=O)[O-])c1 [VimC3C] | –
19 | -170.72 | −81.06 | C=Cn1cc[n+](CCCS(=O)(=O)[O-])c1 [VimC3S] | –
